Source: patent US8080565B2, “Substituted 4-amino-benzylpiperidine compounds” (Theravance, Inc., priority 2003, dated 2011)

What was measured:
[1] = tested on: oxotremorine-induced salivation; assay: In vivo rat salivation assay; conditions: for ID50 bladder/salivation selectivity ratio: comparison of ID50 values of rat bladder assay and rat salivation assay
Method: Female Sprague-Dawley rats weighing 200 to 300 g were anesthetized with urethane (1.5 g/kg, s.c., Sigma, St. Louis, Mo.), with a supplement of 0.25 g/kg, s.c. urethane as needed. Urethane was administered at a concentration of 0.25 g/mL.
Rats were placed on a heated blanket on their dorsal side in an inclined position (20° angle) position (head down). A swab was placed in the rat's mouth. The test compound or vehicle was administered intravenously via the tail vein. After 5 min., oxotremorine (1.0 mg/kg) was administered subcutaneously. The swab was discarded and replaced by a pre-weighed swab. Saliva was then collected for 10 min. and then the swab was removed and re-weighed to determine the output of saliva. Dose-response curves were fitted with a four parameter logistic equation to obtain estimates of ID50 (dose required to produce 50% of the maximal response).
By comparing the ID50 values determined in the rat bladder assay and rat salivation assay, the in vivo bladder/salivation selectivity ratio was calculated for the compounds tested.

[2] = tested on: volume-induced bladder contraction amplitude (VIBCAmp); assay: In vivo rat bladder assay; conditions: anesthetized female Sprague-Dawley rats; intravenous; normalized to atropine response
Method: Female Sprague-Dawley rats (Harlan, Indianapolis, Ind.) weighing 200 to 300 g were anesthetized with urethane (1.5 g/kg, s.c., Sigma, St. Louis, Mo.), with a supplement of 0.25 g/kg, s.c. urethane as needed. Urethane was administered at a concentration of 0.25 g/mL.
Rats were prepared for surgery by shaving the neck and abdomen and cleansing with ethanol wipes. First, an incision was made on the ventral surface. An intravenous catheter was placed by isolating and ligating the femoral vein. […]
Thereafter, an intravenous dose of the test compound was administered and changes in VIBCAmp were recorded for 15 minutes. Atropine (0.1 mg/kg) was then administered intravenously (1 mL/kg) as a positive control and VIBCAmp and data was recorded for an additional 15 minutes. […]
Alternatively, after the vehicle, increasing cumulative intravenous doses of the test compound were administered at 15 minute intervals (1 mL/kg) and changes in VIBCAmp were recorded for 15 minutes. […]
The average VIBCAmp during the 5-15 minute period after test compound and atropine was determined and subtracted from the average VIBCAmp during the 5-15 minute post-vehicle period to obtain the test compound or atropine-induced change in VIBCAmp. […]

[3] = biological target: T1, hM3 muscarinic receptor subtype (Homo sapiens, UniProt P20309); assay: Radioligand binding assay ([3H]NMS displacement), hM3; conditions: ratio of Ki values
T1 construct: expressed in transfected cells; membrane preparation
Method: (§1) A. Membrane Preparation from Cells Expressing hM1, hM2, hM3 and hM4 Muscarnic Receptor Subtypes
(§2) CHO (Chinese hamster ovary) cell lines stably expressing cloned human hM1, hM2, hM3 and hM4 muscarinic receptor subtypes, respectively, were grown to near confluency in medium consisting of HAM's F-12 supplemented with 10% FBS (Fetal Bovine Serum) and 250 μg/mL Geneticin. The cells were grown in a 5% CO2, 37° C. incubator and lifted with dPBS+2 mM EDTA. Cells were collected by 5 minute centrifugation at 650×g, and cell pellets were either stored frozen at −80° C. or membranes were prepared immediately. […] Protein concentration of the membrane suspension was determined by the method of Lowry, O. et al., (1951) Journal of Biochemistry: 193, 265. […]
(§3) Radioligand binding assays were performed in 96-well microtiter plates in a total assay volume of 100 μL. […] Filter plates were rinsed three times with wash buffer (10 mM HEPES) to remove unbound radioactivity. […] The plates were then counted in a PerkinElmer Topcount liquid scintillation counter (PerkinElmer Inc., Wellesley, Mass.). Binding data were analyzed by nonlinear regression analysis with the GraphPad Prism Software package (GraphPad Software, Inc., San Diego, Calif.) using the one-site competition model. […]

[4] = biological target: T2, hM2 receptor (Homo sapiens, UniProt P08172); assay: Blockade of agonist-mediated GTPγ[35S] binding; type: biochemical; conditions: CHO-K1 cell membranes expressing hM2; carbachol at EC90
T2 construct: expressed in transfected cells; membrane preparation
T2 sequence (P08172 1-466): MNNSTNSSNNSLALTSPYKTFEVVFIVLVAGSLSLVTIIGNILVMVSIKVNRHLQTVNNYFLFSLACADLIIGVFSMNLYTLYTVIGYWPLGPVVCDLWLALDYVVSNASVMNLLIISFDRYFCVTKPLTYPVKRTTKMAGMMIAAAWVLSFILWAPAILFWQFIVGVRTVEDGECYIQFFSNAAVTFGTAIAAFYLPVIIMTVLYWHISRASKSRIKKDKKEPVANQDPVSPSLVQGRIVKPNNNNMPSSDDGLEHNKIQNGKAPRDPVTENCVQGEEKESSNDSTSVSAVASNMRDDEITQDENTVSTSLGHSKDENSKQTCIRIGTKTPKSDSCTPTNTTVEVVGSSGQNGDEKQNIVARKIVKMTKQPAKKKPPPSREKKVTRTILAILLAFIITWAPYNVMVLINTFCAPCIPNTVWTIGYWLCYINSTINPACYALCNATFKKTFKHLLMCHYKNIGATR
Method: A. Blockade of Agonist-Mediated GTPγ[^35S] Binding
In this assay, the functional potency of a test compound was determined by measuring the ability of the test compound to block carbachol-stimulated GTPγ[^35S] binding in CHO-K1 cells expressing the hM2 receptor.
CHO-K1 cells stably expressing the hM2 muscarinic receptor were grown in medium consisting of Hams F-12 media supplemented with 10% Fetal Bovine Serum and 500 μg/ml of Geneticin (G-418). Cells were incubated in a 5% CO2, humidified incubator at 37° C. Cells were grown to confluence and harvested with dPBS+2 mM EDTA and pelleted by centrifugation at 250×g for 10 minutes.
Cells from the centrifuged pellets were resuspended in homogenization buffer (10 mM HEPES, 10 mM EDTA, pH 7 at 4° C.). […]
To determine the ability of a test compound to inhibit carbachol-stimulated GTPγ[^35S] binding, the following was added to each well of 96 well plates: 25 μL of assay buffer with GTPγ[^35S] and GDP, 25 μL of diluted test compound (prepared as described above), and 25 μL CHO cell membranes expressing the hM2 receptor. […] After the pre-incubation period, 25 μL of carbachol at the final concentration of its EC90 value determined earlier in the day was added to each plate. […]
Test compound potency (IC50) was determined using iterative curve fitting (GraphPad Prism 3.0 software; single site competition curve). […]

[5] = biological target: T3, hM2 muscarinic receptor subtype (Homo sapiens, UniProt P08172); assay: Radioligand binding assay ([3H]NMS displacement), hM2; conditions: [3H]NMS at 1 nM; membranes of CHO cells expressing hM2
T3 construct: expressed in transfected cells; membrane preparation
T3 sequence (P08172 1-466): T2 sequence (P08172 1-466)
Method: as §1, §2, §3

T1 sequence (P20309 whole entry): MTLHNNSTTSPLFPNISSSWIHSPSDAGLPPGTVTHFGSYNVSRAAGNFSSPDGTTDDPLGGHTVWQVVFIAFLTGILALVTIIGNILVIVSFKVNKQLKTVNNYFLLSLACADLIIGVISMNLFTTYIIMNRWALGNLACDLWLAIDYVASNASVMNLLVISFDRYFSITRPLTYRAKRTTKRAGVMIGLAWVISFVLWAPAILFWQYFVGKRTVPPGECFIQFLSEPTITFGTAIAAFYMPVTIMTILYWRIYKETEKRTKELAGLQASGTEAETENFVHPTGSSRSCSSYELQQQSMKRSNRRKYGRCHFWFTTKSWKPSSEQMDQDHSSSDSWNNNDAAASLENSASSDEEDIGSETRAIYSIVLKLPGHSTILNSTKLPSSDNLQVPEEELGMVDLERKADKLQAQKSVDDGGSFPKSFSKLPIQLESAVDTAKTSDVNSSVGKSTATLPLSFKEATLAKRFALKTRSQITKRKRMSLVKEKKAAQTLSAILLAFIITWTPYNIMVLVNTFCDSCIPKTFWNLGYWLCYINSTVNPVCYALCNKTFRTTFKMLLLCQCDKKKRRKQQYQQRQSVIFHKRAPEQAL

Structure (SMILES) | ID50 bladder/salivation selectivity ratio [1] | ID50 (rat bladder assay) [2] | hM3/hM2 ratio [3] | Ki [4] [nM] | Ki [5] [nM] | ID50 (rat salivation assay) ([1]; anesthetized female Sprague-Dawley rats, intravenous, oxotremorine 1.0 mg/kg s.c.)
CCN(CC)CC#CCOC(=O)C(O)(c1ccccc1)C1CCCCC1 (centres unmarked) [oxybutynin, reference compound] | about 1.4 |  |  |  |  | 
Cc1ccc(O)c([C@H](CCN(C(C)C)C(C)C)c2ccccc2)c1 [tolterodine, reference compound] | ~4.8 |  |  |  |  | 
COc1cccc(OC)c1CN1CCC(N(C)CCCCOCCCCN2CC[C@@H](C(C(N)=O)(c3ccccc3)c3ccccc3)C2)CC1 [Example 4] | greater than 10 | less than or equal to 0.1 mg/kg | greater than or equal to 5 | < 10 | < 20 | greater than or equal to 1 mg/kg
